pIC50: −log10 of the molar value.
Assays:
ZAP-70 = target: T1, ZAP-70 (Homo sapiens, UniProt P43403); assay: ZAP-70 kinobeads assay; assay type: binding; conditions: cell lysate, dot blot detection
T1 construct: endogenous in cells; host or cells: cell lysate
T1 sequence (P43403 1-619): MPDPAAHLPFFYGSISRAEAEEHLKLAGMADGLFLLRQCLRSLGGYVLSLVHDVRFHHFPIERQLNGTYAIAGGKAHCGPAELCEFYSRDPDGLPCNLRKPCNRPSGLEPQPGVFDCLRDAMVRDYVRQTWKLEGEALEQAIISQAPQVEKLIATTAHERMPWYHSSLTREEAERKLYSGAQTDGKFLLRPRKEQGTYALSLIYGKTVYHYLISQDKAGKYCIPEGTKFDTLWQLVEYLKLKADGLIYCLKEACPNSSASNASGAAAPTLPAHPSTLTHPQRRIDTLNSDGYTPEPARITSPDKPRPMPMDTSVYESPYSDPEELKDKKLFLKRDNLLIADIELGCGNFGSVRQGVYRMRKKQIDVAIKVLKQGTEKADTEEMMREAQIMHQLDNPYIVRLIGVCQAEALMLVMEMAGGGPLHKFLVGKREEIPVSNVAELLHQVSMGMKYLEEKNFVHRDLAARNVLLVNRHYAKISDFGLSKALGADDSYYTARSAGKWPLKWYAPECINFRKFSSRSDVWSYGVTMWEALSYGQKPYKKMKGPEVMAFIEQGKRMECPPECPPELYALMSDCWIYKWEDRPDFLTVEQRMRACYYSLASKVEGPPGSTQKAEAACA
Procedure: The compounds of the present invention as described in the previous examples can be tested in the ZAP-70 kinobeads assay as described (EP-A 1862802 and WO-A 2007/137867). Briefly, test compounds (at various concentrations) and the affinity matrix with the immobilized aminopyrido-pyrimidine ligand 24 are added to cell lysate aliquots and allowed to bind to the proteins in the lysate sample. After the incubation time the beads with captured proteins are separated from the lysate. Bound proteins are then eluted and the presence ZAP-70 is detected and quantified using a specific antibody in a dot blot procedure and the Odyssey infrared detection system.

Jurkat cells = assay: Calcium release assay (Fluo-4, flow cytometry, anti-CD3 stimulation); assay type: cell-based; conditions: Homo sapiens; intracellular Ca2+ release in Jurkat cells after anti-CD3 activation
Procedure: Compounds of the present invention were tested in a Calcium release assay as described below.
The development of fluorescent probes makes it possible to measure the concentration of intracellular free Calcium ions in single living cells. Cells are first loaded with a cell-permeable Ca^2+-sensitive dye, then the test compound is added. Finally, cells are activated through the T cell receptor with an anti-CD3 antibody shortly before data acquisition on the flow cytometer. The release of Ca^2+ is measured as a function of time after cell stimulation. This protocol describes the flow cytometry method using the Fluo-3 and Fluo-4 dyes (Minta et al., 1989, J. Biol. Chem. 264(14):8171-8178) to measure the intracellular Ca^2+ concentration in Jurkat cells (see also June et al., 1997, Measurement of intracellular calcium ions by flow cytometry. In: Current Protocols in Cytometry (1997) Unit 9.8.1-9.8.19, John Wiley & Sons, Inc.).
1) Prepare a work plan indicating the number of samples to be analyzed including controls. 2) Cell harvest: Centrifuge 50 to 100 ml of a Jurkat cell culture for 5 minutes at 1100 rpm. Discard the supernatant, pool the resuspended cell pellets in a single 50 ml Falcon tube, and fill up to 50 ml with PBS-CaCl2 (without FCS). Centrifuge again sample again. 3) Resuspend cell pellet with PBS-CaCl2 (without FCS) to achieve a concentration not lower than 10×10^6 cells/ml. Prepare an adequate dilution to evaluate the cell concentration and count the cells. 4) Separate the volume of cells needed to be loaded (for example […] for 20 samples) in a 50 ml Falcon tube. Fill up with PBS-CaCl2 to 900 μl for 107 cells. 5) Prepare in the dark a 1:1 mix of FLUO-4 (1 mM)+Pluronic F-127 (20%). 5 μl of Fluo-4 are needed per 107 cells. 6) Prepare a 1/10 dilution of this mix with PBS-CaCl2 (in the dark; for example 5 μl Fluo-4+5 μl F-127 completed to 100 μl). 7) Add the dye solution to the cells. […] 8) Incubate the sample for 30 minutes in a cell incubator (37° C., 5% CO2). Mix from time to time. 9) During this time prepare the adequate test compound dilution in PBS-CaCl2 (with 10% FCS). The solution should be 10 times more concentrated than the desired final concentration. Vortex each dilution. Prepare also the antibody dilutions: anti-CD3 (1/200) and GAM (1/25). 10) Label FACS tubes and distribute in the corresponding tube 30 μl of the compound dilution or only buffer for the control tubes. 11) After 30 minutes of incubation wash the cells twice in PBS-CaCl2 (with 10% FCS). During the washing steps make sure that the flow cytometer is already “ON” in order to warm the laser. 12) Resuspend the cell pellet in PBS-CaCl2 (with 10% FCS) at a concentration of 1.5×10^6 cells/ml. 13) Distribute 300 μl of cell suspension into the FACS tubes and mix gently. The compound incubation is starting. Keep samples at room temperature in the dark. 14) Open the settings of the cytometer. It is advised to have a template ready which is used for all measurements. Settings of the machine should also be the same from one experiment to the other which permits to evaluate the reproducibility of the cell preparation. 15) In Setup modus control your cell preparation on the cytometer. Cells should fit in the pre-defined gates. 16) During the compound incubation time, check also that cells are responding to the anti-CD3 activation as expected. Set a timer at 8 sec. Add 6 μl of anti-CD3 dilution (0.2 μg/ml final) and mix gently. Add 1 μl of GAM dilution (0.75 μg/ml final) and mix gently. Incubate the samples in water bath at 37° C. while starting timer. After 8 seconds of incubation, acquire data at medium speed for 200 seconds. A clear increase of fluorescence should appear after 1 minute. 17) Make sure that the cells rest and equilibrate at room temperature 15 minutes before FACS data acquisition 18) Data acquisition: Samples to be compared should be measured consecutively. 19) For a better reproducibility, make sure that data for the loaded cells are acquired within 2 hours. […]

Row | Compound | pIC50 (ZAP-70) | pIC50 (Jurkat cells)
1 | COc1cc(Nc2ncc(F)c(Nc3cccc(NS(=O)(=O)NCC4CC4)c3)n2)cc(OC)c1OC [Example 3, N-(3-(5-fluoro-2-(3,4,5-trimethoxyphenylamino)pyrimidin-4-ylamino)phenyl)-N′-cyclopropylmethylsulfamide] | > 4.30 | 
2 | COc1cc(Nc2ncc(F)c(Nc3cccc(NS(=O)(=O)NC(C)C)c3)n2)cc(OC)c1OC [Example 6, N-(3-(5-fluoro-2-(3,4,5-trimethoxyphenylamino)pyrimidin-4-ylamino)phenyl)-N′-isopropylsulfamide] | > 4.30 | 
3 | CCNS(=O)(=O)Nc1cccc(Nc2nc(Nc3cc(OC)c(OC)c(OC)c3)ncc2F)c1 [Example 7, N-(3-(5-fluoro-2-(3,4,5-trimethoxyphenylamino)pyrimidin-4-ylamino)phenyl)-N′-ethylsulfamide] | > 4.30 | > 6.00
4 | COCCNS(=O)(=O)Nc1cccc(Nc2nc(Nc3cc(OC)c(OC)c(OC)c3)ncc2F)c1 [Example 8, N-(3-(5-fluoro-2-(3,4,5-trimethoxyphenylamino)pyrimidin-4-ylamino)phenyl)-N′-(2-methoxyethyl)sulfamide] | > 4.30 | 
5 | CNS(=O)(=O)Nc1cccc(Nc2nc(Nc3cc(OC)c(OC)c(OC)c3)ncc2F)c1 [Example 9, N-(3-(5-fluoro-2-(3,4,5-trimethoxyphenylamino)pyrimidin-4-ylamino)phenyl)-N′-methylsulfamide] | > 4.30 | 
6 | COc1cc(Nc2ncc(F)c(Nc3ccccc3NS(=O)(=O)NCC3CC3)n2)cc(OC)c1OC [Example 12, N-(2-(5-fluoro-2-(3,4,5-trimethoxyphenylamino)pyrimidin-4-ylamino)phenyl)-N′-cyclopropylmethylsulfamide] | > 4.30 | > 6.00
7 | COc1cc(Nc2ncc(F)c(Nc3ccccc3NS(=O)(=O)NC(C)C)n2)cc(OC)c1OC [Example 13, N-(2-(5-fluoro-2-(3,4,5-trimethoxyphenylamino)pyrimidin-4-ylamino)phenyl)-N′-isopropylsulfamide] | > 4.30 | 
8 | COc1cc(Nc2ncc(F)c(Nc3ccccc3NS(=O)(=O)NCc3ccccc3)n2)cc(OC)c1OC [Example 14, N-(2-(5-fluoro-2-(3,4,5-trimethoxyphenylamino)pyrimidin-4-ylamino)phenyl)-N′-benzylsulfamide] | > 4.30 | 
9 | COCCNS(=O)(=O)Nc1ccccc1Nc1nc(Nc2cc(OC)c(OC)c(OC)c2)ncc1F [Example 15, N-(2-(5-fluoro-2-(3,4,5-trimethoxyphenylamino)pyrimidin-4-ylamino)phenyl)-N′-(2-methoxyethyl)sulfamide] | > 4.30 | > 6.00
10 | COc1cc(Nc2ncc(F)c(Nc3ccc(NS(=O)(=O)N(C)C)cc3)n2)cc(OC)c1OC [Example 16, N-(4-(5-fluoro-2-(3,4,5-trimethoxyphenylamino)pyrimidin-4-ylamino)phenyl)N′,N′-dimethylsulfamide] |  | > 6.00
11 | COc1ccc(Nc2ncc(F)c(Nc3ccccc3NS(N)(=O)=O)n2)cc1 [Example 28, N-(2-(5-fluoro-2-(4-methoxyphenylamino)pyrimidin-4-ylamino)phenyl)sulfamide] | > 4.30 | > 6.00

More lines, now with the values ahead:

Row | pIC50 (ZAP-70) | pIC50 (Jurkat cells) | Compound
12 | > 4.30 | > 6.00 | COc1cc(Nc2ncc(F)c(Nc3cccc(NS(N)(=O)=O)c3)n2)cc(OC)c1OC [Example 1, N-(3-(5-fluoro-2-(3,4,5-trimethoxyphenylamino)pyrimidin-4-ylamino)phenyl)sulfamide]
13 | > 4.30 |  | COc1cc(Nc2ncc(F)c(Nc3cccc(NS(=O)(=O)N(C)C)c3)n2)cc(OC)c1OC [Example 2, N-(3-(5-fluoro-2-(3,4,5-trimethoxyphenylamino)pyrimidin-4-ylamino)phenyl)-N′,N′-dimethylsulfamide]
14 | > 7.00 | > 7.00 | COc1cc(Nc2ncc(F)c(Nc3ccccc3NS(N)(=O)=O)n2)cc(OC)c1OC [Example 10, N-(2-(5-fluoro-2-(3,4,5-trimethoxyphenylamino)pyrimidin-4-ylamino)phenyl)sulfamide]
15 | > 6.00 | > 6.00 | COc1cc(Nc2ncc(F)c(Nc3ccccc3NS(=O)(=O)N(C)C)n2)cc(OC)c1OC [Example 11, N-(2-(5-fluoro-2-(3,4,5-trimethoxyphenylamino)pyrimidin-4-ylamino)phenyl)-N′,N′-dimethylsulfamide]
16 | > 6.00 | > 6.00 | COc1cc(Nc2nccc(Nc3ccccc3NS(N)(=O)=O)n2)cc(OC)c1OC [Example 23, N-(2-(2-(3,4,5-trimethoxyphenylamino)pyrimidin-4-ylamino)phenyl)sulfamide]
17 | > 6.00 | > 7.00 | COc1cc(Nc2ncc(C)c(Nc3ccccc3NS(N)(=O)=O)n2)cc(OC)c1OC [Example 24, N-(2-(5-methyl-2-(3,4,5-trimethoxyphenylamino)pyrimidin-4-ylamino)phenyl)sulfamide]
18 | > 6.00 | > 7.00 | CN(C)c1ccc(Nc2ncc(Br)c(Nc3ccccc3NS(N)(=O)=O)n2)cc1 [Example 25]
19 | > 6.00 | > 7.00 | COc1ccc(Nc2ncc(Br)c(Nc3ccccc3NS(N)(=O)=O)n2)cc1 [Example 26, N-(2-(5-bromo-2-(4-methoxyamino)pyrimidin-4-ylamino)phenyl)sulfamide]
20 | > 6.00 | > 6.00 | NS(=O)(=O)Nc1ccccc1Nc1nc(Nc2ccc3[nH]nnc3c2)ncc1Br [Example 27, N-(2-(2 (1H-benzo[d][1,2,3]triazol-5-ylamino)-5-bromopyrimidin-4-ylamino)phenyl)sulfamide]
21 | > 6.00 |  | CN(C)c1ccc(Nc2ncc(F)c(Nc3ccccc3NS(N)(=O)=O)n2)cc1 [Example 29, N-(2-(5-fluoro-2-(4-(dimethylamino)phenylamino)pyrimidin-4-ylamino)phenyl)sulfamide]
22 | > 7.00 | > 7.00 | COc1cc(Nc2ncc(F)c(Nc3cccc(C)c3NS(N)(=O)=O)n2)cc(OC)c1OC [Example 30, N-(2-(5-fluoro-2-(3,4,5-trimethoxyphenylamino)pyrimidin-4-ylamino)-6-methylphenyl)sulfamide]

— patent US20110028405A1, “SULFAMIDES AS ZAP-70 INHIBITORS” (priority 2007, published 2011)
